Patent publication US20250049036A1 (priority 2021, published 2025)

What was measured:
Pyricularia oryzae = assay: microbe, parasite or virus in culture; format: cell-based; conditions: 168 h, read-out: control compared to the untreated check
Colletotrichum capsici = Colletotrichum capsici (anthracnose) mycelial radial growth on potato dextrose agar; format: cell-based; conditions: Colletotrichum truncatum, 168 h, 25° C., seven days, read-out: control compared to the untreated check
Summary of the method: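 Compounds in 0.3% DMSO were mixed into potato dextrose agar, and each plate was seeded with a 5 mm mycelial disc from an actively growing culture. Plates were incubated at 25° C and 60% relative humidity for seven days. Radial growth was compared with untreated control.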

Alternaria solani = Alternaria solani test in tomato, preventive, greenhouse; format: in vivo; conditions: preventive spray on tomato, inoculated one day after treatment, read-out: control (efficacy, disease severity) compared to the untreated check
Experimental: The respective compound was dissolved in 2% dimethyl sulfoxide/acetone and then mixed with water containing an emulsifier to the calibrated spray volume of 30 mL. Each spray solution was poured into a spray bottle for further application.
To test the preventive activity of a compound, healthy young tomato plants, raised in the greenhouse, were sprayed with the active compound preparation at the stated application rate inside the spray cabinets using hollow cone nozzles. One day after treatment, the plants were inoculated with a spore suspension containing 0.24×10^6 Alternaria solani inoculum. The inoculated plants were then kept in a greenhouse chamber at 22-24° C. temperature and 90-95% relative humidity for disease expression.
(§1) A visual assessment of the compound's performance was carried out by rating the disease severity (0 100% scale) on treated plants 3, 7, 10 and 15 days after application. Efficacy (% control) of the compound was calculated by comparing the disease rating in the treatment with the one of the untreated control. The treated plants were also assessed for plant damage by recording symptoms like necrosis, chlorosis and stunting.

Phytophthora infestans [1] = assay: whole plant or invertebrate; format: in vivo, Phytophthora infestans on tomato; conditions: in Solanum lycopersicum, read-out: control (efficacy, disease severity) compared to the untreated check
Phytophthora infestans [2] = assay: microbe, parasite or virus in culture; format: cell-based; conditions: 168 h, read-out: control compared to the untreated check
Fusarium culmorum = Fusarium culmorum test on wheat, preventive, greenhouse; format: in vivo; conditions: preventive spray on wheat, inoculated one day after treatment, read-out: control (efficacy, disease severity) compared to the untreated check
Experimental: The respective compound was dissolved in 2% dimethyl sulfoxide/acetone and then mixed with water containing an emulsifier to a calibrated spray volume of 30 mL. Each spray solution was poured into a spray bottle for further application.
To test the preventive activity of a compound, healthy young wheat plants, raised in the greenhouse, were sprayed with the active compound preparation at the stated application rate inside the spray cabinets using hollow cone nozzles. One day after the treatment, the plants were inoculated with a spore suspension containing 2×10^6 Fusarium culmorum inoculum. The inoculated plants were then kept in a greenhouse chamber at 24° C. temperature and 80-90% relative humidity for disease expression.
as §1

Botrytis cinerea [3] = assay: Botrytis cinerea test on tomato, preventive, greenhouse; format: in vivo; conditions: preventive spray on bean/chili plants (heading: tomato), inoculated one day after treatment, read-out: control (efficacy, disease severity) compared to the untreated check
Botrytis cinerea [4] = assay: Botrytis cinerea (gray mold) mycelial radial growth on potato dextrose agar; format: cell-based; conditions: 168 h, 22° C., seven days, read-out: control compared to the untreated check
Summary of the method: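 Compounds in 0.3% DMSO were mixed into potato dextrose agar, and plates were seeded with 5 mm mycelial discs from actively growing virulent culture. After seven days at 22 °C and 90% relative humidity, radial growth was measured relative to untreated control.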

Parastagonospora nodorum = Parastagonospora nodorum (PARANO) spore growth inhibition in liquid medium, 96-well microtiter plate, OD 600; format: cell-based; conditions: spore suspension in PDB liquid medium, 18° C., 5-6 days, OD at 600, read-out: control compared to the untreated check
Summary of the method: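 Read-out is percent growth inhibition from OD at 600 after 5-6 days at 18° C. Compounds, dissolved in DMSO, were diluted in potato dextrose broth and combined in equal volume with a 10^5 spores/ml suspension of PARANO.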

Venturia Inequalis = assay: Venturia inequalis (VENTIN) spore growth inhibition in liquid medium, 96-well microtiter plate, OD 600; format: cell-based; conditions: spore suspension in PDB liquid medium, 18° C., 15-18 days, OD at 600, read-out: control compared to the untreated check
Summary of the method: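 Venturia inequalis spores (10^5 spores/ml suspension) were grown in potato dextrose broth with test compounds dissolved in DMSO, mixing equal volumes of compound solution and spore suspension. Plates were incubated at 18 °C for 15–18 days. Growth was read as OD600 and converted to percent inhibition.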

Botrytis cinerea [5] = assay: Botrytis cinerea liq. (BOTRCI) spore growth inhibition in liquid medium, 96-well microtiter plate, OD 405 nm; format: cell-based; conditions: spore suspension in YBA liquid medium, 22° C., 5-6 days, OD at 405 nm, read-out: control compared to the untreated check
Summary of the method: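 Spore suspension of B. cinerea (10^4 spores/ml) in YBA liquid medium mixed 1:1 with compound diluted from DMSO. Incubated at 22° C. for 5-6 days. Growth read as OD 405 nm; percent inhibition derived from treatment, untreated-control and blank readings.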

Phakopsora pachyrhizi = Phakopsora pachyrhizi test on soybean, preventive, greenhouse; format: in vivo; conditions: preventive spray on soybean, inoculated one day after treatment, read-out: control (efficacy, disease severity) compared to the untreated check
Summary of the method: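 Greenhouse-grown young soybean plants were sprayed with compound (2% DMSO/acetone, emulsifier in water) at the stated rate. One day later they were inoculated with 2×10^5 P. pachyrhizi inoculum and held at 22-24 °C, 80-90% relative humidity for disease development.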

CC(c1ccccc1F)C(C)(C)NC(=O)c1cnc2c(ccn2C)c1 (centres unmarked) [Compound 3, N-(3-(2-fluorophenyl)-2-methylbutan-2-yl)-1-methyl-1H-pyrrolo[2,3-b]pyridine-5-carboxamide]
≥ 70%: inhibition of growth at 300 ppm (Pyricularia oryzae) | inhibition of growth at 300 ppm (Colletotrichum capsici) | pest or weed control at 500 ppm (Alternaria solani) | pest or weed control at 500 ppm (Phytophthora infestans [1])

COc1nc2c(ccn2C)cc1C(=O)NC(C)(Cc1ccccc1)CC(C)C (centres unmarked) [Compound 92, N-(2,4-dimethyl-1-phenylpentan-2-yl)-6-methoxy-1-methyl-1H-pyrrolo[2,3-b]pyridine-5-carboxamide]
≥ 70%: inhibition of growth at 300 ppm (Phytophthora infestans [2]) | pest or weed control at 500 ppm (Fusarium culmorum) | pest or weed control at 500 ppm (Botrytis cinerea [3])

CC(C)(Cc1ccccc1)NC(=O)c1cnc2c(c1)CCC2 [Compound 67, N-(2-methyl-1-phenylpropan-2-yl)-6,7-dihydro-5H-cyclopenta[b]pyridine-3-carboxamide]
≥ 70%: inhibition of growth at 300 ppm (Botrytis cinerea [4]) | inhibition of growth at 300 ppm (Parastagonospora nodorum) | inhibition of growth at 300 ppm (Venturia Inequalis) | inhibition of growth at 300 ppm (Botrytis cinerea [5]) | pest or weed control at 500 ppm (Fusarium culmorum) | pest or weed control at 500 ppm (Botrytis cinerea [3]) | pest or weed control at 500 ppm (Phytophthora infestans [1]) | pest or weed control at 500 ppm (Phakopsora pachyrhizi)

Cc1cc2cc(C(=O)NC(C)(C)Cc3ccc(Cl)cc3)cnc2n1C [Compound 101, N-(1-(4-chlorophenyl)-2-methylpropan-2-yl)-1,2-dimethyl-1H-pyrrolo[2,3-b]pyridine-5-carboxamide]
≥ 70%: inhibition of growth at 300 ppm (Botrytis cinerea [4]) | inhibition of growth at 300 ppm (Colletotrichum capsici) | inhibition of growth at 300 ppm (Parastagonospora nodorum) | inhibition of growth at 300 ppm (Botrytis cinerea [5]) | pest or weed control at 500 ppm (Fusarium culmorum) | pest or weed control at 500 ppm (Phakopsora pachyrhizi)

C=C(C)CC(C)(COc1ccccc1F)NC(=O)c1cnc2c(ccn2C)c1 (centres unmarked) [Compound 155, N-(1-(2-fluorophenoxy)-2,4-dimethylpent-4-en-2-yl)-1-methyl-1H-pyrrolo[2,3-b]pyridine-5-carboxamide]
≥ 70%: inhibition of growth at 300 ppm (Colletotrichum capsici) | inhibition of growth at 300 ppm (Parastagonospora nodorum) | inhibition of growth at 300 ppm (Venturia Inequalis) | pest or weed control at 500 ppm (Fusarium culmorum) | pest or weed control at 500 ppm (Phakopsora pachyrhizi)

CC(C)CC(C)(Cc1ccccc1)NC(=O)c1cnc2c(c1)OCCN2C (centres unmarked) [Compound 81, N-(2,4-dimethyl-1-phenylpentan-2-yl)-4-methyl-3,4-dihydro-2H-pyrido[3,2-b] [1,4]oxazine-7-carboxamide]
≥ 70%: inhibition of growth at 300 ppm (Pyricularia oryzae) | inhibition of growth at 300 ppm (Colletotrichum capsici) | inhibition of growth at 300 ppm (Parastagonospora nodorum) | inhibition of growth at 300 ppm (Venturia Inequalis) | pest or weed control at 500 ppm (Fusarium culmorum) | pest or weed control at 500 ppm (Botrytis cinerea [3]) | pest or weed control at 500 ppm (Phytophthora infestans [1])

CC(C)(NC(=O)c1cnc2ccsc2c1)C(O)c1ccccc1 (centres unmarked) [Compound 118, N-(1-hydroxy-2-methyl-1-phenylpropan-2-yl)thieno[3,2-b] pyridine-6-carboxamide]
≥ 70%: inhibition of growth at 300 ppm (Botrytis cinerea [4]) | inhibition of growth at 300 ppm (Parastagonospora nodorum) | inhibition of growth at 300 ppm (Botrytis cinerea [5]) | pest or weed control at 500 ppm (Alternaria solani)

CC(C)CC(C)(Cc1ccccc1)NC(=O)c1cnc2cc[nH]c2c1 (centres unmarked) [Compound 73, N-(2,4-dimethyl-1-phenylpentan-2-yl)-1H-pyrrolo[3,2-b]pyridine-6-carboxamide]
≥ 70%: inhibition of growth at 300 ppm (Botrytis cinerea [4]) | inhibition of growth at 300 ppm (Colletotrichum capsici) | inhibition of growth at 300 ppm (Phytophthora infestans [2]) | inhibition of growth at 300 ppm (Parastagonospora nodorum) | inhibition of growth at 300 ppm (Venturia Inequalis) | inhibition of growth at 300 ppm (Botrytis cinerea [5]) | pest or weed control at 500 ppm (Botrytis cinerea [3]) | pest or weed control at 500 ppm (Alternaria solani) | pest or weed control at 500 ppm (Phytophthora infestans [1])

CC(Cc1ccccc1)C(C)(C)NC(=O)c1cnc2c(ccn2C)c1 (centres unmarked) [Compound 80, N-(2,3-dimethyl-4-phenylbutan-2-yl)-1-methyl-1H-pyrrolo[2,3-b]pyridine-5-carboxamide]
≥ 70%: inhibition of growth at 300 ppm (Colletotrichum capsici) | inhibition of growth at 300 ppm (Parastagonospora nodorum) | inhibition of growth at 300 ppm (Venturia Inequalis) | pest or weed control at 500 ppm (Alternaria solani) | pest or weed control at 500 ppm (Phytophthora infestans [1])

Cc1ccc(CC(C)(C)NC(=O)c2cnc3c(c2)cc(C)n3C)cc1 [Compound 102, 1,2-dimethyl-N-(2-methyl-1-(p-tolyl)propan-2-yl)-1H-pyrrolo[2,3-b]pyridine-5-carboxamide]
≥ 70%: inhibition of growth at 300 ppm (Colletotrichum capsici) | inhibition of growth at 300 ppm (Parastagonospora nodorum) | inhibition of growth at 300 ppm (Venturia Inequalis) | pest or weed control at 500 ppm (Fusarium culmorum) | pest or weed control at 500 ppm (Botrytis cinerea [3]) | pest or weed control at 500 ppm (Phakopsora pachyrhizi)

CC(C)CC(C)(Cc1ccccc1)NC(=O)c1cnc2c(c1)CCC2 (centres unmarked) [Compound 62, N-(2,4-dimethyl-1-phenylpentan-2-yl)-6,7-dihydro-5H-cyclopenta[b]pyridine-3-carboxamide]
≥ 70%: inhibition of growth at 300 ppm (Colletotrichum capsici) | inhibition of growth at 300 ppm (Venturia Inequalis) | pest or weed control at 500 ppm (Fusarium culmorum) | pest or weed control at 500 ppm (Botrytis cinerea [3]) | pest or weed control at 500 ppm (Phytophthora infestans [1]) | pest or weed control at 500 ppm (Phakopsora pachyrhizi)

CC(C)CC(C)(Cc1ccccc1)NC(=O)c1cnc2c(c1)CCCC2 (centres unmarked) [Compound 44, N-(2,4-dimethyl-1-phenylpentan-2-yl)-5,6,7,8-tetrahydroquinoline-3-carboxamide]
≥ 70%: inhibition of growth at 300 ppm (Pyricularia oryzae) | inhibition of growth at 300 ppm (Colletotrichum capsici) | inhibition of growth at 300 ppm (Parastagonospora nodorum) | inhibition of growth at 300 ppm (Venturia Inequalis) | pest or weed control at 500 ppm (Fusarium culmorum) | pest or weed control at 500 ppm (Botrytis cinerea [3]) | pest or weed control at 500 ppm (Phakopsora pachyrhizi)

CCC(O)(CC)C(NC(=O)c1cnc2ccsc2c1)c1ccc(F)cc1 (centres unmarked) [Compound 132, N-(2-ethyl-1-(4-fluorophenyl)-2-hydroxybutyl)thieno [3,2-b]pyridine-6-carboxamide]
≥ 70%: inhibition of growth at 300 ppm (Venturia Inequalis) | pest or weed control at 500 ppm (Alternaria solani) | pest or weed control at 500 ppm (Phakopsora pachyrhizi)

Cc1cc2cc(C(=O)NC(C)(C)Cc3ccccc3F)cnc2n1C [Compound 103, N-(1-(2-fluorophenyl)-2-methylpropan-2-yl)-1,2-dimethyl-1H-pyrrolo[2,3-b]pyridine-5-carboxamide]
≥ 70%: inhibition of growth at 300 ppm (Colletotrichum capsici) | inhibition of growth at 300 ppm (Parastagonospora nodorum) | pest or weed control at 500 ppm (Fusarium culmorum) | pest or weed control at 500 ppm (Phakopsora pachyrhizi)
